Measured values: patent US11807693B2 (priority 2014, dated 2023)
Starred links: 1 amine or outer side, 2 acyl side, 3 side chain; linkers in the order of their positions; H or OH if unused. Non-standard residues stand in square brackets, D forms with d. Residues, ends and D or L forms follow the SMILES beside them. ξ: configuration not given here. *: point of attachment. Oic = O=C(O)[C@@H]1C[C@@H]2CCCC[C@@H]2N1; Phe(4-Cl) = N[C@@H](Cc1ccc(Cl)cc1)C(=O)O; γGlu = O=C(O)[C@H](CCC(=O)[*:2])N[*:1]; NMeR = CN[C@@H](CCCNC(=N)N)C(=O)O; Tridecanoyl = CCCCCCCCCCCCC(=O)*; hArg = N=C(N)NCCCC[C@H](N)C(=O)O; Cha = N[C@@H](CC1CCCCC1)C(=O)O; αMeL = CC(C)C[C@](C)(N)C(=O)O; αMeP = C[C@@]1(C(=O)O)CCCN1; β3hV = CC(C)[C@H](N)CC(=O)O; β3hP = O=C(O)C[C@@H]1CCCN1; Nle = CCCC[C@H](N)C(=O)O; Orn = NCCC[C@H](N)C(=O)O; ξαMeP = CC1(C(=O)O)CCCN1; ξβ3hV = CC(C)C(N)CC(=O)O; AEEA = NCCOCCOCC(=O)O

Key:
Format in all cases: in vitro ADME
[1] = In vitro stability in rat liver homogenate; settings: tissue homogenate
In short: (§1)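 Peptide 5 μM final; rat plasma / liver homog. / kidney homog.; 37° C., 4 hr. Quench MeOH + IS, vortex 15 min RT, spin 5500 g 15 min; supernatant by HR LC-MS.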

[2] = In vitro stability in rat kidney homogenate; settings: rat, tissue homogenate
Protocol: Apelin peptides were spiked into rat plasma, liver homogenate, and kidney homogenate, which were obtained from commercial sources, to a final concentration of 5 μM. The samples were then incubated at 37° C. over a period of 4 hr. […] In a typical experiment, an aliquot of 100 μL of sample was taken from the incubation vial, followed by addition of 300 μL of MeOH containing internal standard. The quenched sample was centrifuged at 5500 g for 15 min after 15 min vortex in room temperature. The supernatant was then analyzed by high resolution LC-MS. […] In vitro plasma, […], and kidney stability results are shown below in Table 14.

[3] = In vitro stability in rat plasma
In short: as §1

Row | Compound | remaining at 4 h, 5 μM [1] [%] | remaining at 4 h, 5 μM [2] [%] | remaining at 4 h, 5 μM [3] [%] | Stability at 4 hours (% Remaining) Liver ([1]; 4 h, 5 μM) [% Remaining] | Stability at 4 hours (% Remaining) Kidney ([2]; 4 h, 5 μM) [% Remaining] | Stability at 4 hours (% Remaining) Plasma ([3]; 4 h, 5 μM) [% Remaining]
1 | CCCCCCCCCCCCC(=O)N[C@@H](CCC(=O)NCCOCCOCC(=O)NCCOCCOCC(=O)N[C@H](CCC(N)=O)C(=O)N[C@@H](CCCNC(=N)N)C(=O)N1CCC[C@@]1(C)C(=O)N[C@@H](CCCCNC(=N)N)C(=O)N[C@H](CC(=O)N[C@@H](CO)C(=O)N[C@@H](Cc1c[nH]cn1)C(=O)N[C@@H](CCCCN)C(=O)NCC(=O)N1[C@H](C(=O)N[C@@H](CCCC)C(=O)N2CCC[C@@]2(C)C(=O)N[C@@H](Cc2ccc(Cl)cc2)C(=O)O)C[C@@H]2CCCC[C@@H]21)C(C)C)C(=O)O [compound 502] ({Tridecanoyl-γGlu-AEEA-AEEA}-[dQ]R[αMeP][hArg][β3hV]SHKG[Oic][Nle][αMeP][Phe(4-Cl)]-OH) | 34 | 19 | > 90 | – | – | –
2 | CCCC[C@H](NC(=O)[C@@H]1CCCN1C(=O)CNC(=O)[C@H](CCCCN)NC(=O)[C@H](Cc1c[nH]cn1)NC(=O)[C@H](CO)NC(=O)[C@](C)(CC(C)C)NC(=O)[C@H](CCCNC(=N)N)N(C)C(=O)[C@@H]1CCCN1C(=O)[C@H](CCCCNC(=N)N)NC(=O)[C@H](CCC(N)=O)NC(C)=O)C(=O)N1CCC[C@H]1C(=O)N[C@@H](Cc1ccc(Cl)cc1)C(=O)O [compound 71] | 35.5 | 0.1 | 0 | – | – | –
3 | CCCCCCCCCCCCC(=O)N[C@@H](CCC(=O)NCCOCCOCC(=O)NCCOCCOCC(=O)N[C@@H](CCC(N)=O)C(=O)N[C@@H](CCCNC(=N)N)C(=O)N1CCCC1(C)C(=O)N[C@@H](CCCCNC(=N)N)C(=O)NC(CC(=O)N[C@@H](CO)C(=O)N[C@@H](Cc1c[nH]cn1)C(=O)N[C@@H](CCCCN)C(=O)NCC(=O)N1[C@H](C(=O)N[C@@H](CCCC)C(=O)N2CCC[C@H]2C(=O)N[C@@H](Cc2ccc(Cl)cc2)C(=O)O)C[C@@H]2CCCC[C@@H]21)C(C)C)C(=O)O (stereo partly drawn) [compound 392] ({Tridecanoyl-γGlu-AEEA-AEEA}-QR[ξαMeP][hArg][ξβ3hV]SHKG[Oic][Nle]P[Phe(4-Cl)]-OH) | 82 | < 1 | 73 | – | – | –
4 | CCCCCCCCCCCCC(=O)N[C@@H](CCC(=O)NCCOCCOCC(=O)NCCOCCOCC(=O)N[C@H](CCC(N)=O)C(=O)N[C@@H](CCCNC(=N)N)C(=O)N1CCC[C@H]1CC(=O)N(C)[C@@H](CCCNC(=N)N)C(=O)N[C@@](C)(CC(C)C)C(=O)N[C@@H](CO)C(=O)N[C@@H](Cc1c[nH]cn1)C(=O)N[C@@H](CCCCN)C(=O)NCC(=O)N1[C@H](C(=O)N[C@@H](CCCC)C(=O)N2CCC[C@@]2(C)C(=O)N[C@@H](Cc2ccc(Cl)cc2)C(=O)O)C[C@@H]2CCCC[C@@H]21)C(=O)O [compound 553] ({Tridecanoyl-γGlu-AEEA-AEEA}-[dQ]R[β3hP][NMeR][αMeL]SHKG[Oic][Nle][αMeP][Phe(4-Cl)]-OH) | 29 | 15 | > 90 | – | – | –
5 | CCCCCCCCCCCCC(=O)N[C@@H](CCC(=O)NCCOCCOCC(=O)NCCOCCOCC(=O)N[C@@H](CCCN)C(=O)N[C@@H](Cc1ccccc1)C(=O)N[C@@H](CCCCNC(=N)N)C(=O)N[C@@H](CCCCNC(=N)N)C(=O)N[C@H](CC(=O)N[C@@H](CCCCNC(=N)N)C(=O)N1CCC[C@H]1C(=O)N[C@@H](CCCCNC(=N)N)C(=O)N[C@@H](CC1CCCCC1)C(=O)N[C@@H](CO)C(=O)N[C@@H](Cc1c[nH]cn1)C(=O)N[C@@H](CCCCN)C(=O)NCC(=O)N1[C@H](C(=O)N[C@@H](CCCC)C(=O)N2CCC[C@H]2C(=O)N[C@@H](Cc2ccc(Cl)cc2)C(=O)O)C[C@@H]2CCCC[C@@H]21)C(C)C)C(=O)O [compound 307] ({Tridecanoyl-γGlu-AEEA-AEEA}-[Orn]F[hArg][hArg][β3hV][hArg]P[hArg][Cha]SHKG[Oic][Nle]P[Phe(4-Cl)]-OH) | 66.8 | 13.8 | > 90 | – | – | –
6 | 110 (QRPRLSHKGPMPF; source: /note="N-term MerPr(10KmPEGacetamide)") [compound 110] | – | – | – | 61 | 27 | 36
7 | CCCCCCCCCCCCC(=O)N[C@@H](CCC(=O)NCCOCCOCC(=O)NCCOCCOCC(=O)N[C@@H](CCC(N)=O)C(=O)N[C@@H](CCCNC(=N)N)C(=O)N1CCC[C@H]1C(=O)N(C)[C@@H](CCCNC(=N)N)C(=O)N[C@@H](CC1CCCCC1)C(=O)N[C@@H](CO)C(=O)N[C@@H](Cc1c[nH]cn1)C(=O)N[C@@H](CCCCN)C(=O)NCC(=O)N1[C@H](C(=O)N[C@@H](CCCC)C(=O)N2CCC[C@@]2(C)C(=O)N[C@@H](Cc2ccc(Cl)cc2)C(=O)O)C[C@@H]2CCCC[C@@H]21)C(=O)O [compound 412] ({Tridecanoyl-γGlu-AEEA-AEEA}-QRP[NMeR][Cha]SHKG[Oic][Nle][αMeP][Phe(4-Cl)]-OH) | 76 | 3 | 77 | – | – | –
